Data: patent US5859032A, “Pyridine derivative, anti-ulcer drug, and antibacterial drug” (priority 1996, dated 1999)

Key:
[1] = MTT: Cell Damaging and Protecting Effect Test; assay type: cell-based, Japanese White rabbit; conditions: rabbit, gastric mucosa cells, 10^-4 M, 37° C., smaller value is better, read-out: MTT: cell damaging rate
Source text: MTT: Cell Damaging and Protecting Effect Test
It is confirmed that there is no toxicity in cell level. Those having a toxicity in cell level are inappropriate as an anti-ulcer drug.
A male Japanese White rabbit (2.5 to 3 kg) was anesthetized to death by Nembutal™ and, immediately thereafter, its stomach was removed. The greater curvature of the stomach was incised so as to remove the stomach contents therefrom. After the mucosal surface was washed with HBSS (Hanks' Balanced Salt Solution), the stomach in ice-cooled HBSS was transferred to a laboratory. Then, after the pyloric antrum was removed, the gastric corpus mucosa was separated by a spatula and then minced into 2 to 3 mm^3 pieces in BME (Basal Medium Eagle). Thereafter, these pieces were shaken at 120 to 130 cycles/minute for 15 minutes at 37° C. in BME 60 ml containing 280 U/ml of dispase and 30 to 50 U/ml of collagenase. Here, the concentration of collagenase was appropriately changed for each lot in view of the state of cells. The pieces were washed twice with EBSS (Earle's Balanced Salt Solution) containing 1 mM of EDTA and then shaken in MEM (Minimum Essential Medium) containing 1 mM of EDTA at 37° C. for 5 minutes. Subsequently, they were shaken in the dispase and collagenase having the same concentrations as those mentioned above for 15 minutes so as to remove the supernatant and then further shaken at 37° C. for 50 to 60 minutes at 120 to 130 cycles/minute. Then, after being washed twice with HBSS, Ham F12 containing 2% of Ultrocer GT™ was used to attain the concentration of 1×10^6 cells/ml. Thus formed suspension was dispensed in each well of a 96-well plate by 200 μl. The plate was incubated in the atmosphere composed of 5% CO2 and 95% air at 37° C. for three days so as to attain a confluent state and then subjected to MTT assay.
The sample compound was dissolved in DMSO so as to attain a concentration of 10^-2 M and then diluted with HBSS containing 2% of Ultrocer G™ so as to attain a final concentration of 10^-4 M. To each group, which 8 wells were used for, 10 μl of MTT reagent was added immediately after 100 μl of the medium in each well was exchanged for same volume of the resulting solution of the sample compound. After being incubated in an atmosphere composed of 5% CO2 and 95% air at 37° C. for 4 hours, thus formed solution was centrifuged and then its supernatant was discarded. Subsequently, 100 μl of 100% ethanol was added to the residue so as to dissolve MTT formazan. Then, the absorbance (OD: 570 to 630) was measured by a microplate reader. This method utilizes a phenomenon in which MTT is changed to MTT formazan only by mitochondria of living cells so as to change color.
The cell damaging or cell protecting effect of the sample compound at the final concentration of 10^-4 M was expressed as cell damaging rate (%) as follows:
cell damaging rate (%)=(1-(absorbance in sample group/absorbance in control
Accordingly, the smaller value is better in the cell damaging rate.

[2] = system: isolated gastric fundic gland; experiment: CAP: Acid Secretion Inhibition Test In Vitro ([14C]-aminopyrine uptake test); assay type: cell-based, Japanese White rabbit; conditions: 10^-5 M, histamine 10^-5 M, 37° C.; for inhibition at 10 µM: Oryctolagus cuniculus, 40 min, read-out: CAP: acid secretion inhibitory rate
Description: CAP: Acid Secretion Inhibition Test In Vitro
The acid secretion inhibitory activity in a cell level is studied. It can also be used for studying the mechanism of the effect. […]
ii-a) Preparation of isolated gastric fundus gland suspension
First, an isolated gastric fundic gland sample was prepared. Namely, a male Japanese White rabbit (2.5 to 3 kg) was anesthetized to death with Nembutal™ and then the abdomen was incised. Immediately thereafter, the stomach was removed and, after its pyloric and cardiac antrum were severed, incised along its greater curvature into two sheets. The gastric contents adhering to the mucosal surface was washed out with ice-cooled PBS (-) and then carefully washed therein. The gastric wall was spread on a cork board with its mucosal surface facing up and the feed and mucus thereon were completely removed with sterile gauze. The mucosa was separated therefrom by a spatula and then collected in ice-cooled PBS (-). After being washed twice with PBS (-), the mucosa was minced into 2-3 mm^3 pieces by scissors. These pieces were further washed twice with a nutrient solution. The nutrient solution comprises 132.4 mM of NaCl, 5.4 mM of KCl, 5 mM of Na2 HPO4. 12H2 O, 1 mM of NaH2 PO4. 2H2 O, 1.2 mM of MgSO4, 1 mM of CaCl 2, 25 mM of HEPES, 2 mg/ml of glucose, and 1 mg/ml of BSA. Into 70 ml of the nutrient solution containing 1 mg/ml of collagenase, minced mucosal pieces were dispersed and intensely stirred in a conical flask with a stirrer at 37° C. for 40 to 60 minutes. During this period, 100% O2 was sprayed on the nutrient solution surface and the pH was appropriately measured such that it was immediately adjusted to pH 7.4, when the value was therebelow, with a base. The nutrient solution was added to the reaction solution so as to attain the total amount of about 200 ml. After being filtered through a mesh, the suspension was divisionally introduced into 50 ml centrifuge tubes and left for 15 minutes such that gastric fundic gland was deposited. The supernatant was repeatedly removed by an aspirator, dispersed in the nutrient solution, and then left such that the gastric fundic gland was washed three times. At this time, without using a pipette, the suspension was alternately introduced into two centrifuge tubes so as to effect dispersion. The number of cells was counted under microscope and adjusted to 1.6×10^6 cells/ml. […]
ii-b) [^14 C]-aminopyrine uptake test
Then, [^14 C]-aminopyrine uptake test was performed. After an Eppendorf tube was weighed, 10 μl (final concentration: 10^-5 M) of histamine dissolved in the above-mentioned nutrient solution, 10 μl (final concentration: 10^-5 M) of the test compound dissolved in DMSO, and 10 μl (final concentration: 0.05 μCi/ml) of [^14 C]-aminopyrine diluted with the nutrient solution were introduced therein and then 970 μl of the isolated gastric fundic gland suspension prepared above was added thereto. Subsequently, this mixture was shaken at 37° C. for 40 minutes at 125 cycles/minute. After being centrifuged for 30 minutes, 200 μl of its supernatant was collected into a mini-vial, while the rest was removed by an aspirator. The gland pellet was completely dried as the tube with its lid being opened was kept for one night in a drying oven at 80° C. and then the lid was closed and the weight was determined at room temperature. Then 100 μl of 1N KOH was added thereto and the tube with its lid being closed was treated at 60° C. for 1 to 2 hours so as to dissolve the pellet. Then, the contents thereof were transferred to a mini-vial. Into the mini-vial containing the supernatant or gland pellet, 4 ml of Atomlite™ was added and then the radioactivity was measured by a liquid scintillation counter. Here, after the radioactivity of the gland pellet was corrected by using a sample in which 20 mM of NaSCN was added so as to cancel the hydrogen ion concentration gradient, the integration ratio of aminopyrine specifically trapped by the gland pellet was calculated. […]

[3] = system: stress ulcer formation (rats); experiment: WIS: Restraint and Water Immersion Stress-Induced Ulcer Inhibition Test; assay type: in vivo, rat (male Crj:SD or Slc:SD); conditions: rat, 100 mg/kg, oral, 7 hours water immersion stress
Description: WIS: Restraint and Water Immersion Stress-Induced Ulcer Inhibition Test
The degree of inhibition of the stress ulcer formation is tested.
Male Crj:SD or Slc:SD rats (6 to 7-week-old) were fasted overnight, but allowed free access to water. Each group has 5 to 8 of these rats. […] To a control group, the vehicle was administered. 10 minutes later, the rats were placed in a stress cage and immersed to the level of xipfoid process in a water bath (21° C.) for 7 hours. At the end of the stress, the rats were sacrificed by inhalation of ether or carbon dioxide. Then, the stomach of each was removed, inflated by injecting 10 ml of 5% formalin neutral buffer solution, and immersed in 1% formalin neutral buffer solution for 30 minutes or more to be fixed. The stomach was incised along the greater curvature and then the length of each erosion in the glandular portion was determined under dissecting microscope. The sum of the length of erosions per stomach was defined as ulcer index (UI).
The effect obtained when 100 mg/kg of the sample compound had been administered was expressed as ulcer formation inhibitory rate (%) as follows:
ulcer formation inhibitory rate (%)=(1-(UI in sample group/UI in control

mice = conditions: mouse, in vivo
Description: AT: Single Dose Toxicity Pretest
Male Slc:ICR mice (5-week-old) were used. Each group has 3 to 5 mice and each mouse was fasted, but allowed free access to water, for 4 to 5 hours from 9 a.m. in the test day. Then, 2,000 mg/10 ml/kg of the sample compound dissolved or suspended in an aqueous solution of 0.5% sodium carboxymethyl cellulose was orally administered thereto. To a control, only the vehicle was administered. […] The body weight was measured before and after the fasting as well as at the same time everyday. The dead animals were immediately subjected to autopsy and their organs were observed microscopically. Also, the living animals were sacrificed with ether or carbon dioxide one week after the administration and then their organs were observed microscopically.
The toxicity at the single dose of 2,000 mg/kg of the sample compound was expressed as being classified into 5 levels.
5: Mortality rate is 0%; no toxicity is found at all both in behavior and organs.
4: Mortality rate is 0%; while no toxicity is found in organs, slight toxicity is observed in behavior and body weight increase.
3: While there is a dead animal (though not all the animals are dead), no toxicity is found in organs.
2: Regardless of whether there is a dead animal or not, toxicity is found in organs.
1: All the animals are dead.

[4] = system: gastric acid secretion (pylorus-ligated, histamine-stimulated rats); experiment: VOL, TAO: Acid Secretion Inhibition Test In Vivo; design: species or system rat (male Crj:Donryu); conditions: rat, 100 mg/kg, oral; histamine 30 mg/kg s.c.
Description: VOL, TAO: Acid Secretion Inhibition Test In Vivo
Inhibitory effect on acid secretion in vivo is confirmed.
Male Crj:Donryu rats (7-week-old) were fasted overnight but allowed free access to water. In each group, 8 to 10 of these rats were used under urethane anesthesia (1.25 g/kg). […] 30 minutes later, the abdomen of each was incised and the pylorus was ligated. 30 minutes after the ligation, 30 mg/kg of histamine dissolved in physiological saline was subcutaneously administered and, 3 hours thereafter, the rat was sacrificed with carbon dioxide. Immediately thereafter, each stomach was removed and the gastric contents were collected and each volume was determined. The total acid output was determined by titration of the gastric juice with 0.1N NaOH.
With respect to the gastric juice volume (VOL) and the total acid output (TAO), the effects obtained when 100 mg/kg of the sample compound had been administered were expressed as their respective inhibitory rates (%) as follows:
each inhibitory rate (%)=(1-(value in sample group/value in control

gastric mucosa = experiment: PD: Gastric Mucosal Integrity Test; assay type: in vivo, rat (male CDj:SD); design: key: 5: Same as the control with no recognizable damage at all.; 4: Though a slight PD-decreasing tendency suggesting a slight possibility of mucosal damage is found, there is no problem.; 3: Though a weak decrease in PD and a possibility of a weak mucosal damage is recognized, there is no substantial problem.; 2: Medium degree of decrease in PD is found and a mucosal damage is recognized.; 1: Heavy degree of decrease in PD is found and a remarkable mucosal damage is recognized; conditions: rat, 100 mg/kg into chamber, 60 minutes
Description: PD: Gastric Mucosal Integrity Test
In this case, since the sample compound has a necrotizing effect, it is inappropriate as an anti-ulcer medicament.
Therefore, the gastric mucosal potential difference (PD), which reflects the integrity of the gastric mucosa, is measured so as to confirm that the sample compound has no damaging effect on gastric mucosa, which is toxicity at gastric mucosal level.
Male CDj:SD rats (7 to 8-week-old) were fasted overnight, but allowed free access to water, and then, under urethane anesthesia (1.25 g/kg, i.p.), fixed to a cork board on its back. The abdomen of each rat was incised, and a small incision was made in the forestomach. Then, the inside of the stomach was washed with physiological saline heated at 37° C. From the forestomach, along the greater curvature thereof, the stomach was incised without damaging blood vessels. After the height of the cork board was adjusted on a jack, the stomach was mounted on ex vivo chamber. The area of the gastric mucosa exposed to the inside of this chamber was 2.5 cm^2. The inside of the chamber was perfused with physiological saline warmed at 37° C. by micro tube pump. By using an agar bridge containing 3M KCl, the potential difference between the chamber and the abdominal cavity was measured by a PD meter. Here, the rectal temperature was measured to control the body temperature during the experiment. […] To a control, the vehicle was administered.
The change in PD during 60 minutes after the administration of 100 mg/kg of the sample compound was collectively studied and, with reference to the positive control, classified into 5 levels as follows:
5: Same as the control with no recognizable damage at all.
3: Though a weak decrease in PD and a possibility of a weak mucosal damage is recognized, there is no substantial problem.
2: Medium degree of decrease in PD is found and a mucosal damage is recognized.
1: Heavy degree of decrease in PD is found and a remarkable mucosal damage is recognized.

Compound | cytotoxicity at 4 h, 100 µM [1] [%] | inhibition at 10 µM [2] [%] | WIS: ulcer formation inhibitory rate [3] [%] | AT: toxicity at the single dose (5 levels) (mice) | TAO: total acid output inhibitory rate [4] [%] | VOL: gastric juice volume inhibitory rate [4] [%] | PD: change in gastric mucosal potential difference (5 levels) (gastric mucosa) | CAP: acid secretion inhibitory rate ([2]; 40 minutes) [%]
CC(C)=CCC/C(C)=C/COc1ccc(OC/C=C(\C)CCC=C(C)C)c(C(=O)NCCc2ccncc2)c1 [Example 5, 4-[2-(2,5-digeranyloxybenzoylamino)ethyl]pyridine] | -17 | 99 | 35 |  |  |  |  | 
COc1ccc(NCCNC(=O)c2ccc(OC/C=C(\C)CCC=C(C)C)cc2)cn1 [Example 9, 3-[2-(4-geranyloxybenzoylamino)ethylamino]-6-methoxypyridine] | 8 | 77 | 42 |  |  |  |  | 
CC(C)=CCC/C(C)=C/COc1ccc(C(=O)NCCSc2ccc(C(F)(F)F)cn2)cc1 [Example 12, 2-[2-(4-geranyloxybenzoylamino)ethylthio]-5-trifluoromethylpyridine] | -14 |  | 37 | 5 | -10 | -5 | 5 | 
CC(C)Cc1cc(C(=O)NCCc2ccncc2)ccc1OCc1ccc(F)cc1.Cl [Example 15, 4-[2-[4-(4-fluorobenzyloxy)-3-isobutylbenzoylamino]ethyl]pyridine hydrochloride] |  |  | 86 |  |  |  |  | 95.1
CC(C)Cc1cc(C(=O)NCCc2ccncc2)ccc1OCc1ccc(F)cc1 [Example 14, 4-[2-[4-(4-fluorobenzyloxy)-3-isobutylbenzoylamino]ethyl]pyridine] |  | 97 | 91 | 4 |  |  |  | 
